From patent US6337317B1, “Antimicrobial peptides and methods of use thereof” (priority 2000, dated 2002) come the findings set out here.

The subject of assay [1] is intact cells of E. coli UB1005. Put plainly: NPN uptake assay, outer membrane permeabilization. It is filed as cell-based, Escherichia coli. Particulars: peptide concentration leading to 50% of maximal increase in NPN uptake. On the procedure:
The outer membrane permeabilization activity of invention peptides was determined by the 1-N-phenylnapthylamine (NPN) uptake assay of Loh et al. ((1984) Antimicor. Agents Chemother. 26:546-551), using intact cells of E. coli UB1005.
(§1) The cytoplasmic membrane depolarization activity of the peptides was determined (Wu and Hancock (1999) J. Biol. Chem. 274:29-35) using the membrane potential sensitive dye 3,3-dipropylthiacarbocyanine diSC35 (28) and E. coli DC2. Bacterial cells in mid-log phase were centrifuged, washed in 5 mM HEPES, pH 7.8, and resuspended in the same buffer to an OD600 of 0.05. A stock solution of diSC35 was added to a final concentration of 0.4 μM and quenching was allowed to occur at room temperature for 20-30 min. Then KCl was added to the cell suspension to a final concentration of 100 mM to equilibrate the cytoplasmic and external K^+ concentrations. A 2-mL cell suspension was placed in a 1 cm cuvette and the desired concentration of tested peptide was added. Changes in fluorescence due to the disruption of the membrane potential in the cytoplasmic membrane were continuously recorded using a Perkin-Elmer model 650-10S spectrofluorimeter at an excitation wavelength of 622 nm and an emission wavelength of 670 nm. The concentration of peptide leading to a 50% of maximal increase in NPN uptake was recorded as the P50.
Therefore, an increase in fluorescence in the presence of a peptide indicates the ability of peptide to permeabilize the bacterial outer membrane.

In the next assay the test system is S. aureus SAP0017. It is filed as cell-based, Staphylococcus aureus. As for the experimental part:
(§2) The biological activity of the peptides can be determined by standard methods known to those of skill in the art, such as a “minimal inhibitory concentration” (MIC) assay (see Wu and Hancock (1999) J. Biol Chem. 274:29-35 and Examples section). A MIC assay allows the determination of the lowest concentration of peptide that inhibits the multiplication and growth of mircoorganisms. Changes in the microorganism population are assessed by measuring the optical density (OD) of the population in broth or medium. Peptide MIC's can be determined for a variety of micoorganisms under a variety of conditions. Another assay for the biological activity of the peptides is a “fractional inhibitory concentration” (FIC) assay. This assay is especially useful for determining synergistic effects between the peptides of the invention, and between invention peptides and other compounds such as known antibiotics. A FIC assay employs the strategy of a MIC assay with additional variable(s), e.g., known antibiotics. […] The FIC is calculated by looking at the impact of an antibiotic on the MIC of the peptide and the reciprocal relationship. […] As used herein, FIC can be determined as follows: […]
(§3) MIC Assay p The minimum inhibitory concentrations of (MIC) of several invention peptides were determined using methods described elsewhere (Wu and Hancock, (1999) J. Biol Chem. 274:29-35). […]

The next assay relates to S. aureus R147. It is filed as cell-based, Staphylococcus aureus. As for the experimental part: as §2, §3
The next assay relates to E. coli DC2. Put plainly: Cytoplasmic membrane depolarization, diSC35 assay. Type of assay: cell-based, Escherichia coli. Particulars: 0.25 μg/ml peptide. As for the experimental part: The arrowhead indicates the time at which 0.25 μg/ml peptide was added. PV5: SEQ ID NO:11; PV7: SEQ ID NO:4; and PV8: SEQ ID NO:3.
as §1

Another assay has as its system P. aeruginosa H374. Type of assay: cell-based, Pseudomonas aeruginosa. On the procedure:
as §2, §3

For another assay, the system named is P. aeruginosa H744. It is filed as cell-based, Pseudomonas aeruginosa. On the procedure:
as §2, §3

Where a SMILES comes first, the peptide text is derived from it.

What is called MIC is the least concentration at which growth counts as inhibited.

Regarding `CC(C)[C@@H]1NC(=O)[C@H](CCCNC(=N)N)NC(=O)[C@H](Cc2ccccc2)NC(=O)[C@@H](NC(=O)[C@H](Cc2c[nH]c3ccccc23)NC(=O)[C@H](CCCNC(=N)N)NC(=O)[C@@H](N)CCCNC(=N)N)CSSC[C@@H](C(=O)N[C@@H](CCCNC(=N)N)C(N)=O)NC(=O)[C@H](CCCCN)NC(=O)[C@H](CCCNC(=N)N)NC(=O)[C@H](Cc2ccc(O)cc2)NC(=O)[C@@H]2CSSC[C@H](NC1=O)C(=O)N[C@@H](Cc1ccc(O)cc1)C(=O)N[C@@H](CCCNC(=N)N)C(=O)NCC(=O)N[C@@H](Cc1ccccc1)C(=O)N2` [Polyphemusin I] (HELM PEPTIDE1{R.R.W.C.F.R.V.C.Y.R.G.F.C.Y.R.K.C.R.[am]}$PEPTIDE1,PEPTIDE1,4:R3-17:R3|PEPTIDE1,PEPTIDE1,8:R3-13:R3$$$V2.0; N-terminus and C-terminus assumed), in assay [1], the P50 came to 2.8 µg/mL. Also, the minimum inhibitory concentration (MIC) with S. aureus SAP0017 came to 0.5 µg/mL; in the assay on S. aureus R147, 0.5 µg/mL; in the assay with P. aeruginosa H374, 0.25 µg/mL; with P. aeruginosa H744, 0.25 µg/mL. Besides, in the assay with E. coli DC2, the “time to dissipation of the cytoplasmic membrane potential” value is recorded as ≤ 5 min.
